Data published in patent US12576093B2, “Pharmaceutical composition for subcutaneous administration” (MANNKIND CORPORATION, priority 2019, dated 2026).
Read-outs that look alike come from different tables or passages of the source.

What was measured:
[1] = in vivo; settings: male, Beagle, dog, sc, 0.837 mg/kg
[2] = cited from earlier work
[3] = cited from earlier work; remark: listed apart in the source
[4] = dog, in vivo, sc, 0.837 mg/kg

AUC(0-t) ([1]; AUClast): 82.9 ng·h/mL | MRT last ([1]; MRTlast): 24.4 h | tmax ([1]; Tmax): 30 h | Cmax [4]: 3.41 ng(mL
Structure (SMILES): CN1CCc2cccc3c2[C@H]1Cc1ccc(O)c(O)c1-3 [Apomorphine]
Solubility ([2]; in Toluene (wrapped cell r23-r24: practically insoluble)): insoluble in Toluene. | Solubility ([2]; in alcohol (wrapped cell r19-r20: sparingly soluble in water and in alcohol)): Sparingly soluble in water | Solubility ([2]; in chloroform (wrapped cell r21-r22: very slightly soluble)): water at 80°; very slightly | Solubility ([2]; in ether (wrapped cell r21-r23: very slightly soluble)): water at 80°; very slightly | Solubility ([2]; in water): Sparingly soluble in water | Stability ([3]; exposure to light and air (wrapped cell r15-r17: gradually acquires a green color)): acquires a green color on | Stability ([3]; recommended storage conditions (protect from light)): Stable under recommended
